These molecules were tested on tau protein (assay: Tau protein in vitro degradation assay (Western blot, Tau-13 antibody)). Conditions: SK-N-SH cells; 72 hours of incubation; tested at 300 nM, 100 nM, 33 nM and 11 nM; Western blot, Tau-13 antibody.
Format: cell-based, human
How it was run: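 SK-N-SH cells, seeded ≥18 h beforehand, were incubated 72 h with tau PROTACs at 1000, 300 and 100 nM or at 300, 100, 33 and 11 nM. Lysates in protease-inhibitor buffer were resolved by SDS-PAGE; tau quantified by Western blot with Tau-13 antibody recognising all human tau forms.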

SMILES | Degradation activity (tau protein remaining; highest amount of degradation observed at any dosage)
Cc1ncsc1-c1ccc(CNC(=O)[C@@H]2C[C@@H](O)CN2C(=O)[C@H](C(C)C)N2Cc3ccccc3C2=O)c(OCCOCCOCCOCCOc2ccc(-c3ccc4c(c3)[nH]c3ccncc34)cn2)c1 [Compound 196, (2S,4R)—N-(2-(2-(2-(2-(2-((5-(5H-pyrido[4,3-b]indol-7-yl)pyridin-2-yl)oxy)ethoxy)ethoxy)ethoxy)ethoxy)-4-(4-methylthiazol-5-yl)benzyl)-4-hydroxy-1-((S)-3-methyl-2-(1-oxoisoindolin-2-yl)butanoyl)pyrrolidine-2-carboxamide] | C (>80% tau protein remaining after 72 hours of incubation with the test compound)
Cn1c2ccncc2c2ccc(-c3ccc(O[C@H]4C[C@H](OCCCC(F)(F)COC5CC6(C5)CN(c5ccc7c(c5)C(=O)N(C5CCC(=O)NC5=O)C7=O)C6)C4)nc3)cc21 (stereo partly drawn) [Compound 197, 5-(6-((2,2-difluoro-5-((1r,3r)-3-((5-(5-methyl-5H-pyrido[4,3-b]indol-7-yl)pyridin-2-yl)oxy)cyclobutoxy)pentyl)oxy)-2-azaspiro[3.3]heptan-2-yl)-2-(2,6-dioxopiperidin-3-yl)isoindoline-1,3-dione] | C (>80% tau protein remaining after 72 hours of incubation with the test compound)
Cn1c2ccncc2c2ccc(-c3ccc(O[C@H]4C[C@H](OC5CCN(c6cccc(C#CCOc7ccc8c(c7)C(=O)N(C7CCC(=O)NC7=O)C8=O)c6)CC5)C4)nc3)cc21 (stereo partly drawn) [Compound 198, 2-(2,6-dioxopiperidin-3-yl)-5-((3-(3-(4-((1r,3r)-3-((5-(5-methyl-5H-pyrido[4,3-b]indol-7-yl)pyridin-2-yl)oxy)cyclobutoxy)piperidin-1-yl)phenyl)prop-2-yn-1-yl)oxy)isoindoline-1,3-dione] | A (≤50% tau protein remaining after 72 hours of incubation with the test compound)
Cn1c2ccncc2c2ccc(-c3ccc(O[C@H]4C[C@H](N(C)C(=O)C56CC(COCCCCOc7ccc8c(c7)C(=O)N(C7CCC(=O)NC7=O)C8=O)(C5)C6)C4)nc3)cc21 (stereo partly drawn) [Compound 199, 3-((4-((2-(2,6-dioxopiperidin-3-yl)-1,3-dioxoisoindolin-5-yl)oxy)butoxy)methyl)-N-methyl-N-((1r,3r)-3-((5-(5-methyl-5H-pyrido[4,3-b]indol-7-yl)pyridin-2-yl)oxy)cyclobutyl)bicyclo[1.1.1]pentane-1-carboxamide] | C (>80% tau protein remaining after 72 hours of incubation with the test compound)
Cc1ncsc1-c1ccc(CNC(=O)[C@@H]2C[C@@H](O)CN2C(=O)[C@H](C(C)C)N2Cc3ccccc3C2=O)c(OCCOCCOCCOCCOCCOc2ccc(-c3ccc4c(c3)[nH]c3ccncc34)cn2)c1 [Compound 201, (2S,4R)—N-(2-((14-((5-(5H-pyrido[4,3-b]indol-7-yl)pyridin-2-yl)oxy)-3,6,9,12-tetraoxatetradecyl)oxy)-4-(4-methylthiazol-5-yl)benzyl)-4-hydroxy-1-((S)-3-methyl-2-(1-oxoisoindolin-2-yl)butanoyl)pyrrolidine-2-carboxamide] | C (>80% tau protein remaining after 72 hours of incubation with the test compound)
CN(CCCO[C@H]1C[C@H](Oc2ccc(-c3ccc4c5cnccc5n(C)c4c3)cn2)C1)C(=O)COCC1CN(c2ccc3c(c2)C(=O)N(C2CCC(=O)NC2=O)C3=O)C1 (stereo partly drawn) [Compound 202, 2-((1-(2-(2,6-dioxopiperidin-3-yl)-1,3-dioxoisoindolin-5-yl)azetidin-3-yl)methoxy)-N-methyl-N-(3-((1r,3r)-3-((5-(5-methyl-5H-pyrido[4,3-b]indol-7-yl)pyridin-2-yl)oxy)cyclobutoxy)propyl)acetamide] | B (≤80% and >50% tau protein remaining after 72 hours of incubation with the test compound)
Cn1c2ccncc2c2ccc(-c3cnc(OCCOCCOCCOCCOCCOc4ccc5c(c4)C(=O)N(C4CCC(=O)NC4=O)C5=O)c(C#N)c3)cc21 (stereo not drawn) [Compound 203, 2-((14-((2-(2,6-dioxopiperidin-3-yl)-1,3-dioxoisoindolin-5-yl)oxy)-3,6,9,12-tetraoxatetradecyl)oxy)-5-(5-methyl-5H-pyrido[4,3-b]indol-7-yl)nicotinonitrile] | A (≤50% tau protein remaining after 72 hours of incubation with the test compound)
O=C1CCC(N2C(=O)c3ccc(OCC#Cc4ccc(O[C@H]5C[C@H](Oc6ccc(-c7cc8[nH]c9ccncc9c8c(F)c7F)cn6)C5)cn4)cc3C2=O)C(=O)N1 (stereo partly drawn) [Compound 204, 5-((3-(5-((1r,3r)-3-((5-(8,9-difluoro-5H-pyrido[4,3-b]indol-7-yl)pyridin-2-yl)oxy)cyclobutoxy)pyridin-2-yl)prop-2-yn-1-yl)oxy)-2-(2,6-dioxopiperidin-3-yl)isoindoline-1,3-dione] | C (>80% tau protein remaining after 72 hours of incubation with the test compound)
Cn1c2ccncc2c2ccc(-c3ccc(O[C@H]4C[C@H](OC5CCN(c6cccc(CCCOc7ccc8c(c7)C(=O)N(C7CCC(=O)NC7=O)C8=O)c6)CC5)C4)nc3)cc21 (stereo partly drawn) [Compound 205, 2-(2,6-dioxopiperidin-3-yl)-5-(3-(3-(4-((1r,3r)-3-((5-(5-methyl-5H-pyrido[4,3-b]indol-7-yl)pyridin-2-yl)oxy)cyclobutoxy)piperidin-1-yl)phenyl)propoxy)isoindoline-1,3-dione] | A (≤50% tau protein remaining after 72 hours of incubation with the test compound)
Cn1c2ccncc2c2ccc(-c3ccc(O[C@H]4C[C@H](OCCOCCOCCOCC5CN(c6ccc7c(c6)C(=O)N(C6CCC(=O)NC6=O)C7=O)C5)C4)nc3)cc21 (stereo partly drawn) [Compound 206, 2-(2,6-dioxopiperidin-3-yl)-5-(3-((2-(2-(2-((1r,3r)-3-((5-(5-methyl-5H-pyrido[4,3-b]indol-7-yl)pyridin-2-yl)oxy)cyclobutoxy)ethoxy)ethoxy)ethoxy)methyl)azetidin-1-yl)isoindoline-1,3-dione] | B (≤80% and >50% tau protein remaining after 72 hours of incubation with the test compound)
O=C1CCC(N2C(=O)c3ccc(OCCOCCOCCOCCOCCOc4ccc(-c5ccn6c(n5)nc5ccccc56)cn4)cc3C2=O)C(=O)N1 (stereo not drawn) [Compound 207, 5-((14-((5-(benzo[4,5]imidazo[1,2-a]pyrimidin-2-yl)pyridin-2-yl)oxy)-3,6,9,12-tetraoxatetradecyl)oxy)-2-(2,6-dioxopiperidin-3-yl)isoindoline-1,3-dione] | B (≤80% and >50% tau protein remaining after 72 hours of incubation with the test compound)
Cn1c2ccncc2c2ccc(-c3ccc(N4CC(OCCOCCOCCOCCOc5ccc6c(c5)C(=O)N(C5CCC(=O)NC5=O)C6=O)C4)nc3)cc21 (stereo not drawn) [Compound 208, 2-(2,6-dioxopiperidin-3-yl)-5-(2-(2-(2-(2-((1-(5-(5-methyl-5H-pyrido[4,3-b]indol-7-yl)pyridin-2-yl)azetidin-3-yl)oxy)ethoxy)ethoxy)ethoxy)ethoxy)isoindoline-1,3-dione] | A (≤50% tau protein remaining after 72 hours of incubation with the test compound)

— patent US11458123B2 (Arvinas, Inc., priority 2016, dated 2022)
